In patent US20250320288A1, “METHOD OF TREATING VITILIGO WITH INTERFERON-GAMMA ANTIBODY” (Elixiron Immunotherapeutics (Hong Kong), priority 2022, published 2025):
“Also recorded” adds a separate entry of the source.

Tests used:
primary melanocytes [1] = experiment: Cell morphology assay in melanocytes; type: cell-based, human; details: primary melanocytes, 7 days of treatment
primary melanocytes [2] = experiment: Melanocyte cell viability after IFN-γ, chemokines, cell death inhibitors or 2A6Q, Day 2 and Day 7; type: cell-based, human; details: for rescue of IFN-γ induced melanocyte cell death (cell viability): melanocytes with IFN-γ, up to seven days
Experimental: To determine cell viability of melanocyte after treatment with IFN-γ, CXCL9, CXCL10, CXCL11, at Day 2, and Day 7, the cells were collected and seeded into 96-well plates. After adhesion, cells were treated with IFN-γ (0, 10, 100 ng/ml) with different compounds: 2A6Q, CXCL9, CXCL10, CXCL11, ROS scavenger (NAC), necroptosis inhibitor (NEC-1), pyroptosis inhibitor (VX-765), apoptosis inhibitor (QVD-OPH), Ferroptosis inhibitor (Liproxstaitin-1, Ferrostatin-1, DFO). Cell viability was measured using a CellTiter-Glo luminescent cell viability assay kit (Promega) according to the manufacturer's protocol. The […] of the final reaction product was measured using a luminometer (SpectraMax® iD3 Multi-Mode Microplate Reader (Molecular Devices). After calculation, the viability of control cells was 100%, and all others were normalized to control and shown as relative cell viability (%). Treatment dosage N-acetylcysteine (NAC; 0.05 mM, 1 mM), Necrostatin-1 (NEC-1; 20 μM, 2 μM), Belnacasan (VX-765; 50 μg/mL, 5 μg/mL), Quinoline-Val Asp-Difluorophenoxymethylketone (QVD-OPH; 10 μM, 2 μM), Liproxstaitin-1 (10 μM, 5 μM, 1 μM, 0.05 μM), Ferrostatin-1 (5 μM, 1 μM), Deferoxamine (DFO; 10 μM, […], 1 μM, 0.05 μM), 2A6Q (10 μg/mL), CXCL9 (10 ng/mL, 10 pg/mL), CXCL10 (10 ng/ml, 10 pg/mL), CXCL11(10 ng/mL, 10 pg/mL).

[3] = cited from earlier work

Molecule: IFN-α
- morphology change in melanocyte (loss of dendrite, ballooning of cytoplasm) (primary melanocytes [1]): not IFN-α was found to contributes to morphology change

Molecule: CN1C(=O)C(Cc2c[nH]c3ccccc23)NC1=S (centres unmarked) [NEC-1, Necrostatin-1]
- rescue of IFN-γ induced melanocyte cell death (cell viability) (primary melanocytes [2]): unable to restore

Molecule: CC(C)[C@H](NC(=O)c1ccc2ccccc2n1)C(=O)N[C@@H](CC(=O)O)C(=O)COc1c(F)cccc1F [QVDOPH, Quinoline-Val Asp-Difluorophenoxymethylketone]
- rescue of IFN-γ induced melanocyte cell death (cell viability) (primary melanocytes [2]): unable to restore
- rescue of IFN-γ induced melanocyte cell death (cell viability) (primary melanocytes [2]; listed as pan-caspase inhibitor): unable to rescue

Molecule: CCO[C@@H]1OC(=O)C[C@@H]1NC(=O)[C@@H]1CCCN1C(=O)[C@@H](NC(=O)c1ccc(N)c(Cl)c1)C(C)(C)C [VX-765, Belnacasan]
- rescue of IFN-γ induced melanocyte cell death (cell viability) (primary melanocytes [2]): unable to restore

Molecule: NI-0501: another anti-IFN-γ antibody, described in U.S. Pat. No. 7,700,098 B2
- Key Study Findings: mortalities ([3]; at all dose groups): There were mortalities
- Key Study Findings: GI tract infection caused by Shigella sp. and Campylobacter sp. ([3]; cynomolgus monkey, in vivo): infection was confirmed
- Key Study Findings: monkeys early sacrificed because of severe clinical signs ([3]; from 18 monkeys): 7 monkeys were early

Molecule: CC(=O)N[C@@H](CS)C(=O)O [NAC, N-acetylcysteine]
- rescue of IFN-γ induced melanocyte cell death (cell viability) (primary melanocytes [2]): did not find a rescue effect; also recorded: unable to restore

Molecule: CXCL10: IFN-γ downstream cytokine added to melanocytes
- effect on cell viability of melanocytes (individual cytokine) (primary melanocytes [2]; day 7 of treatment): not CXCL9, CXCL10, or CXCL11 significantly decreases

Molecule: Clc1cccc(CN=C2Nc3ccccc3NC23CCNCC3)c1 [Liproxstatin-1]
- rescue of IFN-γ induced melanocyte cell death (cell viability) (primary melanocytes [2]): can partially rescue
